Experimental data taken from patent US6087358A (priority 1997, dated 2000).
≈ marks a conversion by molar mass, not a printed value.

Each compound was assayed on Mycobacterium tuberculosis (multidrugresistant strain) (assay: microbe, parasite or virus in culture). Settings: read-out: MIC, column C, 3(S) compounds.
Type: cell-based

SMILES	MIC
CCCCc1ccc(CO[C@@H]2COc3nc([N+](=O)[O-])cn3C2)cc1 [PA-822]	≤ 0.015 µg/mL
O=[N+]([O-])c1cn2c(n1)OC[C@@H](OCc1ccc(OCc3ccccc3)cc1)C2 [PA-647]	≤ 0.015 µg/mL
CC(C)(C)c1ccc(CO[C@@H]2COc3nc([N+](=O)[O-])cn3C2)cc1 [PA-653]	≤ 0.015 µg/mL
O=[N+]([O-])c1cn2c(n1)OC[C@@H](OCc1ccc(OC(F)(F)F)cc1)C2 [PA-824, 3S 4-(Trifluromethoxy)benzyloxy-6-nitro-2H-3,4-dihydro-[2-1b]imidazopyran]	0.13 µg/mL (≈ 0.362 µM)
